Assay results as given in patent US11053204B2, “Pyrimidinyloxy benzene derivatives as herbicides” (FMC Corporation, priority 2015, dated 2021).

Tests used:
Assay type in all cases: in vivo
[1] = test system: ragweed (common ragweed, Ambrosia elatior); test: Test A preemergence, visual injury rating; settings: Ambrosia artemisiifolia, pre-emergence, 240 h, 0 to 100 scale (0 no effect, 100 complete control), read-out: Ragweed plant response rating
Summary of the method: (§1)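 Visual 0–100 rating (100 = complete control) taken about 10 d post-treatment relative to untreated checks. Preemergence: directed soil spray on sown loam/sand pots. Postemergence: seedlings 2–10 cm, 1–2 leaf. Non-phytotoxic solvent formulation with surfactant.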

[2] = test system: giant foxtail (Setaria faberii); test: Test A preemergence, visual injury rating; settings: Setaria faberi, pre-emergence, 240 h, 0 to 100 scale (0 no effect, 100 complete control), read-out: Foxtail, Giant plant response rating
Summary of the method: as §1

[3] = test system: barnyardgrass (Echinochloa crus-galli); test: Test A preemergence, visual injury rating; settings: Echinochloa crus-galli, pre-emergence, 240 h, 0 to 100 scale (0 no effect, 100 complete control), read-out: Barnyardgrass plant response rating
Summary of the method: as §1

[4] = test system: Italian ryegrass (Lolium multiflorum); test: Test A preemergence, visual injury rating; settings: Lolium multiflorum, pre-emergence, 240 h, 0 to 100 scale (0 no effect, 100 complete control), read-out: Ryegrass, Italian plant response rating
Summary of the method: as §1

[5] = test system: crabgrass, large (large crabgrass, Digitaria sanguinalis); test: Test C preemergence, plant response rating; settings: Digitaria sanguinalis, pre-emergence, Preemergence
Summary of the method: (§2)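 After sowing in loam–sand blend or silt loam, pots were sprayed preemergence; separately grown 1- to 4-leaf plants were sprayed postemergence. Following 13 to 15 d under greenhouse conditions, injury was rated visually on a 0 to 100 scale.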

[6] = test system: waterhemp (common waterhemp, Amaranthus rudis); test: Test C preemergence, plant response rating; settings: Amaranthus tuberculatus, pre-emergence, Preemergence
Summary of the method: as §2

[7] = test system: lambsquarters (Chenopodium album); test: Test C preemergence, plant response rating; settings: Chenopodium album, pre-emergence, Preemergence
Summary of the method: as §2

[8] = test system: ragweed (common ragweed, Ambrosia elatior); test: Test C preemergence, plant response rating; settings: Ambrosia artemisiifolia, pre-emergence, Preemergence
Summary of the method: as §2

corn (Zea mays) = test: Test C preemergence, plant response rating; settings: Zea mays, pre-emergence, Preemergence
Summary of the method: as §2

[9] = test system: foxtail, giant (giant foxtail, Setaria faberii); test: Test C preemergence, plant response rating; settings: Setaria faberi, pre-emergence, Preemergence
Summary of the method: as §2

soybean (Glycine max) = test: Test C preemergence, plant response rating; settings: Glycine max, pre-emergence, Preemergence, scale 0 to 100
Summary of the method: as §2

[10] = test system: velvetleaf (Abutilon theophrasti); test: Test C preemergence, plant response rating; settings: Abutilon theophrasti, pre-emergence, Preemergence
Summary of the method: as §2

[11] = test system: wheat (winter wheat, Triticum aestivum); test: Test C preemergence, plant response rating; settings: Triticum aestivum, pre-emergence, Preemergence
Summary of the method: as §2

[12] = test system: nutsedge, yellow (yellow nutsedge, Cyperus esculentus); test: Test C preemergence, plant response rating; settings: Cyperus, pre-emergence, Preemergence
Summary of the method: as §2

[13] = test system: morningglory (Ipomoea coccinea); test: Test C preemergence, plant response rating; settings: Ipomoea, pre-emergence, Preemergence
Summary of the method: as §2

[14] = test system: oilseed rape (Brassica napus); test: Test C preemergence, plant response rating; settings: Brassica napus, pre-emergence, Preemergence
Summary of the method: as §2

[15] = test system: blackgrass (Alopecurus myosuroides); test: Test C preemergence, plant response rating; settings: Alopecurus myosuroides, pre-emergence, Preemergence
Summary of the method: as §2

[16] = test system: ryegrass, Italian (Italian ryegrass, Lolium multiflorum); test: Test C preemergence, plant response rating; settings: Lolium multiflorum, pre-emergence, Preemergence
Summary of the method: as §2

O=C(OCCC(F)(F)F)c1c(Br)cccc1Oc1ncc(Cl)cn1 [Compound 26, 3,3,3-trifluoropropyl 2-bromo-6-[(5-chloro-2-pyrimidinyl)oxy]benzoate]
pest or weed control at 125 g/ha ([1]; 125 g ai/ha): 20% | pest or weed control at 500 g/ha ([1]; 500 g ai/ha): 20% | pest or weed control at 125 g/ha ([2]; 125 g ai/ha): 100% | pest or weed control at 500 g/ha ([2]; 500 g ai/ha): 100% | pest or weed control at 125 g/ha ([3]; 125 g ai/ha): 100% | pest or weed control at 500 g/ha ([3]; 500 g ai/ha): 100% | pest or weed control at 125 g/ha ([4]; 125 g ai/ha): 70% | pest or weed control at 500 g/ha ([4]; 500 g ai/ha): 100% | pest or weed control at 62 g/ha ([5]; 62 g ai/ha, scale of 0 to 100): 100% | pest or weed control at 125 g/ha ([5]; 125 g ai/ha, scale of 0 to 100): 100% | pest or weed control at 16 g/ha ([5]; 16 g ai/ha, scale 0 to 100): 98% | pest or weed control at 31 g/ha ([5]; 31 g ai/ha, scale 0 to 100): 100% | pest or weed control at 125 g/ha ([6]; 125 g ai/ha, scale of 0 to 100): 100% | pest or weed control at 16 g/ha ([6]; 16 g ai/ha, scale 0 to 100): 100% | pest or weed control at 31 g/ha ([6]; 31 g ai/ha, scale 0 to 100): 100% | pest or weed control at 62 g/ha ([6]; 62 g ai/ha, scale 0 to 100): 100% | pest or weed control at 125 g/ha ([7]; 125 g ai/ha, scale of 0 to 100): 95% | pest or weed control at 16 g/ha ([7]; 16 g ai/ha, scale 0 to 100): 70% | pest or weed control at 31 g/ha ([7]; 31 g ai/ha, scale 0 to 100): 85% | pest or weed control at 62 g/ha ([7]; 62 g ai/ha, scale 0 to 100): 95% | pest or weed control at 125 g/ha ([8]; 125 g ai/ha, scale of 0 to 100): 50% | pest or weed control at 16 g/ha ([8]; 16 g ai/ha, scale 0 to 100): 20% | pest or weed control at 31 g/ha ([8]; 31 g ai/ha, scale 0 to 100): 30% | pest or weed control at 62 g/ha ([8]; 62 g ai/ha, scale 0 to 100): 60% | Corn plant response rating (crop injury, 0 = no effect, 100 = complete kill) at 62 g/ha (corn (Zea mays); 62 g ai/ha, scale of 0 to 100): 25% | Corn plant response rating (crop injury, 0 = no effect, 100 = complete kill) at 125 g/ha (corn (Zea mays); 125 g ai/ha, scale of 0 to 100): 40% | Corn plant response rating (crop injury, 0 = no effect, 100 = complete kill) at 16 g/ha (corn (Zea mays); 16 g ai/ha, scale 0 to 100): 0% | Corn plant response rating (crop injury, 0 = no effect, 100 = complete kill) at 31 g/ha (corn (Zea mays); 31 g ai/ha, scale 0 to 100): 0% | pest or weed control at 62 g/ha ([9]; 62 g ai/ha, scale of 0 to 100): 98% | pest or weed control at 125 g/ha ([9]; 125 g ai/ha, scale of 0 to 100): 98% | pest or weed control at 16 g/ha ([9]; 16 g ai/ha, scale 0 to 100): 95% | pest or weed control at 31 g/ha ([9]; 31 g ai/ha, scale 0 to 100): 98% | plant injury at 31 g/ha (soybean (Glycine max); 31 g ai/ha): 10% | plant injury at 62 g/ha (soybean (Glycine max); 62 g ai/ha): 35% | pest or weed control at 125 g/ha ([10]; 125 g ai/ha, scale of 0 to 100): 100% | pest or weed control at 16 g/ha ([10]; 16 g ai/ha, scale 0 to 100): 0% | pest or weed control at 31 g/ha ([10]; 31 g ai/ha, scale 0 to 100): 30% | pest or weed control at 62 g/ha ([10]; 62 g ai/ha, scale 0 to 100): 85% | plant injury at 125 g/ha ([11]; 125 g ai/ha, scale of 0 to 100): 15% | plant injury at 16 g/ha ([11]; 16 g ai/ha, scale 0 to 100): 0% | plant injury at 31 g/ha ([11]; 31 g ai/ha, scale 0 to 100): 20% | plant injury at 62 g/ha ([11]; 62 g ai/ha, scale 0 to 100): 5% | pest or weed control at 125 g/ha ([12]; 125 g ai/ha, scale of 0 to 100): 45% | pest or weed control at 16 g/ha ([12]; 16 g ai/ha, scale 0 to 100): 0% | pest or weed control at 31 g/ha ([12]; 31 g ai/ha, scale 0 to 100): 0% | pest or weed control at 62 g/ha ([12]; 62 g ai/ha, scale 0 to 100): 15% | pest or weed control at 125 g/ha ([13]; 125 g ai/ha, scale of 0 to 100): 95% | pest or weed control at 16 g/ha ([13]; 16 g ai/ha, scale 0 to 100): 20% | pest or weed control at 31 g/ha ([13]; 31 g ai/ha, scale 0 to 100): 10% | pest or weed control at 62 g/ha ([13]; 62 g ai/ha, scale 0 to 100): 85% | plant injury at 125 g/ha ([14]; 125 g ai/ha, scale of 0 to 100): 100% | plant injury at 16 g/ha ([14]; 16 g ai/ha, scale 0 to 100): 80% | plant injury at 31 g/ha ([14]; 31 g ai/ha, scale 0 to 100): 85% | plant injury at 62 g/ha ([14]; 62 g ai/ha, scale 0 to 100): 100% | pest or weed control at 62 g/ha ([15]; 62 g ai/ha, scale of 0 to 100): 90% | pest or weed control at 125 g/ha ([15]; 125 g ai/ha, scale of 0 to 100): 90% | pest or weed control at 16 g/ha ([15]; 16 g ai/ha, scale 0 to 100): 45% | pest or weed control at 31 g/ha ([15]; 31 g ai/ha, scale 0 to 100): 90% | pest or weed control at 125 g/ha ([16]; 125 g ai/ha, scale of 0 to 100): 95% | pest or weed control at 16 g/ha ([16]; 16 g ai/ha, scale 0 to 100): 35% | pest or weed control at 31 g/ha ([16]; 31 g ai/ha, scale 0 to 100): 75% | pest or weed control at 62 g/ha ([16]; 62 g ai/ha, scale 0 to 100): 85%
